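Dose response: 5 concentrations. Exposure: 48 h. Format: 96-well plates. Endpoint: linear interpolation; highest concentration if not reached. The concentration for 50% growth inhibition is given as GI50. At the TGI there is no net growth.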
How the values were obtained:
Assay in all cases: growth of human tumour cells (NCI), 48 h
MALME-3M melanoma = system: MALME-3M melanoma
SNB-19 CNS = system: SNB-19 CNS
SNB-75 CNS = system: SNB-75 CNS
LOX IMVI melanoma = system: LOX IMVI melanoma
NCI-H23 lung = system: NCI-H23 lung
CCRF-CEM leukemia = system: CCRF-CEM leukemia
UO-31 renal = system: UO-31 renal
SR leukemia = system: SR leukemia
SK-OV-3 ovarian = system: SK-OV-3 ovarian
EKVX NSCLC = system: EKVX NSCLC

SMILES	GI50 (MALME-3M melanoma) [nM]	TGI (MALME-3M melanoma) [µM]	GI50 (SNB-19 CNS) [µM]	TGI (SNB-19 CNS) [µM]	GI50 (SNB-75 CNS) [µM]	TGI (SNB-75 CNS) [µM]	GI50 (LOX IMVI melanoma) [nM]	TGI (LOX IMVI melanoma) [µM]	GI50 (NCI-H23 lung) [µM]	TGI (NCI-H23 lung) [µM]	GI50 (CCRF-CEM leukemia) [nM]	TGI (CCRF-CEM leukemia) [µM]	GI50 (UO-31 renal) [nM]	TGI (UO-31 renal) [µM]	GI50 (SR leukemia) [nM]	TGI (SR leukemia) [µM]	GI50 (SK-OV-3 ovarian) [µM]	TGI (SK-OV-3 ovarian) [µM]	GI50 (EKVX NSCLC) [µM]	TGI (EKVX NSCLC) [µM]
O=C1/C(=C\c2ccccc2)CN(C(=O)c2ccccc2)C/C1=C\c1ccccc1	2960	7.17	3.79	15.1	7.24	22	1380	2.89	3.62	12.4	1430	6.49	1700	3.92	335	2.9	3.1	9.44	–	–
CCC(C)CC(C)C(=O)c1c(O)ccn(O)c1=O (stereo not drawn)	1440	10.1	1.19	> 100	4.12	> 100	804	> 100	1.98	> 100	600	> 100	376	4.31	498	18.3	6.2	> 100	–	–
COC(=O)c1nc(C(=O)OC)c2c([nH]c3ccccc32)c1C(=O)OC	–	> 100	–	–	–	> 100	–	> 100	–	> 100	–	> 100	–	75.9	–	> 100	–	–	–	–
O=C([O-])CCc1ccccc1.O=C([O-])CCc1ccccc1.O=C([O-])CCc1ccccc1.O=C([O-])CCc1ccccc1.[Mo+2].[Mo+2]	> 100000	> 100	> 100	> 100	–	–	> 100000	> 100	> 100	> 100	> 100000	> 100	> 100000	> 100	> 100000	> 100	> 100	> 100	> 100	> 100
N#Cc1c(-c2ccccc2)cc(-c2cccs2)c(C#N)c1N	–	> 100	–	> 100	–	55.2	–	> 100	–	–	–	> 100	–	–	–	–	–	–	–	> 100
CS(=N)(=O)CCC(N)P(=O)(O)O (stereo not drawn)	–	> 100	–	> 100	–	–	–	> 100	–	> 100	–	–	–	> 100	–	> 100	–	> 100	–	> 100
NC1=NC2=C(CCCC2)C(c2cccs2)S1 (stereo not drawn)	–	> 100	–	> 100	–	> 100	–	–	–	> 100	–	> 100	–	74.3	–	–	–	> 100	–	> 100
CC(=O)CC(=O)NC=O	–	> 100	–	> 100	–	> 100	–	–	–	> 100	–	> 100	–	> 100	–	> 100	–	> 100	–	> 100
N#Cc1ccc(C(C2C(=O)NC(=O)NC2=O)C2C(=O)NC(=O)NC2=O)cc1	–	> 100	–	> 100	–	–	–	> 100	–	> 100	–	> 100	–	> 100	–	> 100	–	> 100	–	> 100
CN(C)c1ccc(/C=c2\sc3nnc(-c4cccnc4)n3c2=O)cc1	–	> 100	–	> 100	–	> 100	–	> 100	–	> 100	–	> 100	–	> 100	–	–	–	> 100	–	> 100
CCOC(=O)/C(=C/c1ccccc1Br)P(=O)(OCC)OCC	–	3.47	–	6.21	–	6.02	–	3.09	–	4.09	–	3.16	–	–	–	–	–	–	–	8.16
CC(C)(CN1CCCCC1)C(=O)CC(SCCN)c1ccc(Cl)cc1 (stereo not drawn)	–	11.6	–	4.54	–	5.59	–	4.85	–	5.8	–	5.19	–	13.3	–	–	–	7.83	–	4.53
CC(=O)SC(SC(C)=O)SC(C)=O	–	> 100	–	> 100	–	> 100	–	> 100	–	> 100	–	81	–	> 100	–	–	–	> 100	–	> 100
FC(F)(F)c1cc(-c2ncn(/C=C\c3nnco3)n2)cc(C(F)(F)F)c1	102	0.734	0.126	> 100	0.106	3.65	90.2	3.82	0.146	> 41.4	107	> 100	151	> 100	24.6	12.6	0.223	> 67.3	–	–
O=c1[nH]c(F)nc2c1ncn2C1OC(CO)C(O)C1O (stereo not drawn)	> 100000	> 100	> 100	> 100	> 100	> 100	> 100000	> 100	> 100	> 100	> 100000	> 100	> 100000	> 100	> 100000	> 100	> 100	> 100	–	–
C=C1c2[nH]c3ccccc3c2CC(C(=O)O)N1C(O)c1ccc(S(=O)(=O)O)cc1 (stereo not drawn)	–	> 100	–	> 100	–	> 100	–	> 100	–	> 100	–	> 100	–	> 100	–	> 100	–	> 100	–	–
CCCCCCc1cc2cc(-c3csc(/C=C/c4ccccc4)n3)c(=O)oc2cc1O	14700	34.6	10.3	34.3	11.5	26.5	3290	12.8	3.09	10.1	4200	15	15700	> 100	2880	9.69	28.1	80.3	–	–
COC1=CC(=O)OC(/C=C(C)/C=C/C2=C(C)CCCC2(C)C)C1 (stereo not drawn)	–	> 100	–	> 100	–	> 100	–	–	–	> 100	–	> 100	–	> 100	–	> 100	–	> 100	–	> 100
Fc1ccc(C2SCc3nc4ccccc4n32)cc1F (stereo not drawn)	–	> 100	–	> 100	–	56.9	–	–	–	81.9	–	97	–	41	–	–	–	> 100	–	> 100
CC1=NC=C(O)c2ccccc2O1	–	> 100	–	> 100	–	–	–	> 100	–	> 100	–	> 100	–	> 100	–	–	–	> 100	–	> 100

— PubChem BioAssay (NCI)
